Holding throughout (assay type): in vivo, mice (C57BL6)
Experiment [1] concerns microglia. Briefly: Flow cytometry of brain microglia for Slc2al expression and 2-NBDG glucose uptake in older mice. As to conditions: 25 mg/kg oral 3 times a week for 15 weeks from 37 weeks of age, vs vehicle-treated older mice, p<0.05. As to the method:
All animal studies were conducted under protocols approved by APLAC from Stanford University. Older and young animals on C57BL6 background were purchased from Taconic. Older animals are defined as those above 36 weeks of age, when physiological aging process accelerates in mice, while young counterparts are 20 weeks of age. Data are presented as mean±SEM. Two-tailed Student's t-test and two-way ANOVA were used for statistical analyses. A p value of <0.05 is considered to be statistically significant. Older animals were orally treated 3 times a week for 15 weeks with 0.5% methylcellulose (vehicle) or ZLN005 (Sigma) at 25 mg/kg in vehicle, starting at 37 weeks of age. Treated older animals (n=6), non-treated older animals (n=6), and young animals (20 weeks old, n=6) were sacrificed after drug treatment and their brain tissues collected. PBS-perfused brain tissues of sacrificed animals were digested with Collagenase I and processed for flow cytometry (Ginhoux et al Science, 330:841-5, 2010). Brain microglia were phenotyped with 2-NBDG (2-(N-(7-nitrobenz-2-oxa-1,3-diazol-4-yl)amino)-2-deoxyglucose, Invitrogen) and anti-Slc2al antibody (RnD) for flow cytometric acquisition (LSRII, BD) and analysis (FlowJo). The results are summarized in FIG. 1: Y-axis represents % of microglia that either express glucose transporter Slc2al or have taken up glucose fluorescent analog 2-NBDG. […]

Experiment [2] deals with microglia. Briefly: Flow cytometry of brain microglia for CCL2 and TNF-α production in older mice. The conditions noted are these: 25 mg/kg oral 3 times a week for 15 weeks from 37 weeks of age, vs vehicle-treated older mice. As to the method: (§1) All animal studies were conducted under protocols approved by APLAC from Stanford University. Older and young animals on C57BL6 background were purchased from Taconic. Older animals are defined as those above 36 weeks of age, when physiological aging process accelerates in mice, while young counterparts are 20 weeks of age. Data are presented as mean±SEM. Two-tailed Student's t-test and two-way ANOVA were used for statistical analyses. A p value of <0.05 is considered to be statistically significant. Older animals were orally treated 3 times a week for 15 weeks with 0.5% methylcellulose (vehicle) or ZLN005 (Sigma) at 25 mg/kg in vehicle, starting at 37 weeks of age. Treated older animals (n=6), non-treated older animals or aged animals (n=6), and young animals (20 weeks old, n=6) were sacrificed after drug treatment and their brain tissues were collected. PBS-perfused brain tissues of sacrificed animals were digested with Collagenase I and processed for flow cytometry (Ginhoux et al Science. 330:841-5.2010). Brain microglia were phenotyped with fluorochrome-labeled antibodies to CCL2 and TNF-α (Biolegend) for flow cytometric acquisition (LSRII. BD) and analysis (FlowJo). The results are summarized in FIG. 2: Y-axis represents % of microglia that express CCL2 or TNF-α. ANOVA was used for statistical analysis. […]

A further experiment has as its system TNF-α. Briefly: Serum TNF-α by ELISA in older mice (systemic inflammation). The conditions noted are these: 25 mg/kg oral 3 times a week for 15 weeks, vs vehicle-treated older mice, p<0.05. As to the method:
as §1, with “TNF-α levels” for “The results are summarized”, “serum” for “FIG. 2: Y-axis represents %”, “young mice, vehicle-treated older mice, and ZLN-treated older mice (from Example 2) were measured by ELISA to determine TNF-α levels which indicated systemic inflammation.” for “microglia that express CCL2 or TNF-α. ANOVA was used for statistical analysis.”

Experiment [3] in a line: Marble burying assay in older mice. The conditions noted are these: older mice at 52 weeks of age, 25 mg/kg oral 3 times a week for 15 weeks, 12 marbles, 30 minutes, vs vehicle-treated older mice, p<0.05. As to the method:
All animal studies were conducted under protocols approved by APLAC from Stanford University. Older and young animals on C57BL6 background were purchased from Taconic. Older animals are defined as those above 36 weeks of age, when physiological aging process accelerates in mice, while young counterparts are 20 weeks of age. Data are presented as mean±SEM. Two-tailed Student's t-test and two-way ANOVA were used for statistical analyses. A p value of <0.05 is considered to be statistically significant.
Animals were orally treated 3 times a week for 15 weeks with 0.5% methylcellulose (vehicle) or ZLN005 (Sigma) at 25 mg/kg in vehicle, starting at 37 weeks of age. At 52 weeks of age, the older animals were subjected to a marble burying assay, a behavioral test of anxiety (Dekeyne A. Therapie. 60:477-84.2005). Each animal was given 12 marbles on top of bedding in individual cage and allowed to run free in the cage for 30 minutes. After this period of time, each buried marble was individually assigned a number based on its degree of being buried (1=90-100% hidden, 0.75=60-90% hidden, 0.5=30-60% hidden, 0=below 30% hidden), and then the sum of the numbers of 12 marbles buried by each mouse is calculated as the marble burying score of the mouse. […] Unpaired t-test was used for statistical analysis.

On to `CC(C)(C)c1ccc(-c2nc3ccccc3[nH]2)cc1` [ZLN005, 2-(4-tert-Butylphenyl)-1H-benzimidazole], for which, in the experiment with microglia [1], the “% of microglia that express glucose transporter Slc2al” value is on record as “decreased” and the “% of microglia that have taken up glucose fluorescent analog 2-NBDG (glucose uptake)” value is given as “decreased”. For the same compound, the “% of microglia that express CCL2” value in the experiment on microglia [2] (p<0.01) is recorded as “decreased”. The “% of microglia that express TNF-α” value in the experiment on microglia [2] (p<0.05) is on record as “decreased”. Moreover, the “concentration of TNF-α in serum” value with TNF-α is given as “decreased”. Also, in experiment [3], the marble burying score result is “reduced the anxiety phenotype”.

Source of the values: patent US12678424B2, “Method for preventing and/or treating systemic inflammation” (THE BOARD OF TRUSTEES OF THE LELAND STANFORD JUNIOR …, priority 2015, dated 2026).
